This note sets out measurements from US9981933B2, “Detergent compositions” (INNOSPEC LIMITED, priority 2013, dated 2018).

The nature of data set [1]: In house foaming test (comparative foam heights). Conditions: 1 wt % surfactant solution; relative to 1 wt % Sodium Laureth Sulphate (3EO) = 100. Format: physicochemical. Here is the method: A 1 wt % surfactant solution was prepared. The foam heights were measured using an in house foaming test and the results were compared with those obtained using a composition comprising 1 wt % Sodium Laureth Sulphate (3EO) [SLES].

The subject of another data set is Zein. The data set is described as follows: In house qualitative test based on the Zein test (irritancy/mildness). Format: in vitro. To be noted: 1% surfactant solution; qualitative comparison. Here is the method:
The mass of residual Zein is determined gravimetrically.

For `CCCCCCCCCCCC(=O)OC[C@H](O)[C@H]1OC(=O)C(O)=C1O` [Compound 1, Ascorbyl Monolaurate], the “Relative foam height compared to SLES as %” value (“Relative foam height … as %” below) in data set [1] is given as 32%.
Turning to “Ascorbyl Monolaurate Sulphate [Compound 2]”, the “Relative foam height … as %” value in data set [1] was 105%. In addition, in the data set with Zein, the irritancy/mildness entry is “milder than many commercially available personal care surfactants including Sodium Laureth Sulfate (3EO) [SLES]”.
Turning to Sodium Laureth Sulphate (3EO), in data set [1], the “Relative foam height … as %” value came to 100%.
